Active and inactive are the calls of the source. Cut-off read from the data, not from the text of the source, for most assays here: actives have a measured Kd and inactives only a lower limit.
Columns and labels:
[1] = molecular target: T1, Serine/threonine-protein kinase TAO1 (Homo sapiens, UniProt Q7L7X3)
T1 sequence (Q7L7X3 whole entry): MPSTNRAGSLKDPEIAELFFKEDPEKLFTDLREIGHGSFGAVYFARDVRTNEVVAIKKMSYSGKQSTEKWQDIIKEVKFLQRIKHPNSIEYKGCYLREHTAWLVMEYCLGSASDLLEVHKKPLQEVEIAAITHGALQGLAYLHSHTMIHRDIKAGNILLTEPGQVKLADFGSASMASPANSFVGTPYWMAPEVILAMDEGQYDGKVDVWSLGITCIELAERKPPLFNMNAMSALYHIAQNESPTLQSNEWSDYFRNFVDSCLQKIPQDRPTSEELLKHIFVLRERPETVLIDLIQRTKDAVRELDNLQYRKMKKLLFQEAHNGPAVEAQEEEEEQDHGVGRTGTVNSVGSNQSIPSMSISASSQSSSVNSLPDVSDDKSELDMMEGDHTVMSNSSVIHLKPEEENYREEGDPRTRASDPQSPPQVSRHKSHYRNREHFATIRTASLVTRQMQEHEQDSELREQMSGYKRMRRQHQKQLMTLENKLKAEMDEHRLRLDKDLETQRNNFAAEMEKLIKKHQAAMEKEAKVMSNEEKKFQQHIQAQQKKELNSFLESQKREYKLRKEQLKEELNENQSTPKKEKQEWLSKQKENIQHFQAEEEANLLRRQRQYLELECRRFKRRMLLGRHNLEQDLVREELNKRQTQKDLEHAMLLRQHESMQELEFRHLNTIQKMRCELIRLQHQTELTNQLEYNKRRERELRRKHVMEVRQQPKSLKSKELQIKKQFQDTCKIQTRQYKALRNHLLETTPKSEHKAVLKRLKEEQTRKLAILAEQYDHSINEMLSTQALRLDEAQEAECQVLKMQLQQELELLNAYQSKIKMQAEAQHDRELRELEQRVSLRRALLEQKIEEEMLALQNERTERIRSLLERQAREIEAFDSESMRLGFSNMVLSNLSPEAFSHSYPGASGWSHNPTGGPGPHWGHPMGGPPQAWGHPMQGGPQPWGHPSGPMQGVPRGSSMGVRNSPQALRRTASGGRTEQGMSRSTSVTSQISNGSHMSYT

[2] = molecular target: Citron Rho-interacting kinase (Homo sapiens, UniProt O14578)
[3] = molecular target: Dual specificity mitogen-activated protein kinase kinase 2 (Homo sapiens, UniProt P36507)
[4] = molecular target: Mitogen-activated protein kinase kinase kinase kinase 5 (Homo sapiens, UniProt Q9Y4K4)
[5] = molecular target: Chromodomain-helicase-DNA-binding protein 4 (Homo sapiens, UniProt Q14839)
[6] = molecular target: T2, NUAK family SNF1-like kinase 2 (Homo sapiens, UniProt Q9H093)
T2 sequence (Q9H093 whole entry): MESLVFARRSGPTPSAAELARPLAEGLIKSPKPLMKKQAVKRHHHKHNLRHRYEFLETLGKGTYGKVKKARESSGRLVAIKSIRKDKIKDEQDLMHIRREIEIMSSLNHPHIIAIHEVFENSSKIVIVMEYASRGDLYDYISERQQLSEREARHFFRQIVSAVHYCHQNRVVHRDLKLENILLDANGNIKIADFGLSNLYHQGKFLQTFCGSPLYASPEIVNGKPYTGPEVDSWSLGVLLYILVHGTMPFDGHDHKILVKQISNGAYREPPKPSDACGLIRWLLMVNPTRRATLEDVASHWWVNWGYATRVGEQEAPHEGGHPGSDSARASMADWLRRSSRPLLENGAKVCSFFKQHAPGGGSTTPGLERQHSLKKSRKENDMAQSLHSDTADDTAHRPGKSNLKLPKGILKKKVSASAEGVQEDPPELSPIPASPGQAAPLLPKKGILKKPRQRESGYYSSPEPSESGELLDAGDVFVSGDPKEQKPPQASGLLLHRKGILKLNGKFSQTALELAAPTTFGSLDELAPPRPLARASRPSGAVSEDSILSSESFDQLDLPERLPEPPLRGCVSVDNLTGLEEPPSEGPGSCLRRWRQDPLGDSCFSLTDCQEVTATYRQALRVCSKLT

[7] = molecular target: T3, Serine/threonine-protein kinase PLK4 (Homo sapiens, UniProt O00444)
T3 sequence (O00444 whole entry): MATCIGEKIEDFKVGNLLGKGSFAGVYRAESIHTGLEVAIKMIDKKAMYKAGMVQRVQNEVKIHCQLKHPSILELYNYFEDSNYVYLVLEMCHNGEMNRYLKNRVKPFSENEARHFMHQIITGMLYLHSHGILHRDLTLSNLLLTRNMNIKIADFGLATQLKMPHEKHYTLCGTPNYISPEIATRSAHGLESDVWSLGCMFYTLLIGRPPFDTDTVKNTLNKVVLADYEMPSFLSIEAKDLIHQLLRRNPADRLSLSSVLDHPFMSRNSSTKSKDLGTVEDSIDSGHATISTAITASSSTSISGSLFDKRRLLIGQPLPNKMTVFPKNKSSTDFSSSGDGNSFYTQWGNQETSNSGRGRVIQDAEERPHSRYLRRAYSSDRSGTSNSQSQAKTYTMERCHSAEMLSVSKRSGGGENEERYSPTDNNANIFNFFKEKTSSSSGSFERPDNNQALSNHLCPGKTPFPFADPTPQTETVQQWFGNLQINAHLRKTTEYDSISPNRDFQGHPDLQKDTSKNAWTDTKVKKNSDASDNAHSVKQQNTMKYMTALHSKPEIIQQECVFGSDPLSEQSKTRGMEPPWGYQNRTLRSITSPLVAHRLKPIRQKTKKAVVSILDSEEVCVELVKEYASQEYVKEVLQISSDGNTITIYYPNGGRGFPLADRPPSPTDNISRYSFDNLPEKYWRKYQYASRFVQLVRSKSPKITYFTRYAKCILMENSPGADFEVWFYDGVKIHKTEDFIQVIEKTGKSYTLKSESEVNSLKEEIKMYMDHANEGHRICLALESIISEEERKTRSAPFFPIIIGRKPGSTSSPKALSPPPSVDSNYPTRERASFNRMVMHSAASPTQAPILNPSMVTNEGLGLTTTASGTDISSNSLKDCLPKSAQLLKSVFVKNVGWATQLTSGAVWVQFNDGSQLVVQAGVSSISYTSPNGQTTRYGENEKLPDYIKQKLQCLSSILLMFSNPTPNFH
Note: in the data inactive means no Kd found up to 30 µM.

Chain of Mitogen-activated protein kinase kinase kinase kinase 5 (Q9Y4K4 whole entry): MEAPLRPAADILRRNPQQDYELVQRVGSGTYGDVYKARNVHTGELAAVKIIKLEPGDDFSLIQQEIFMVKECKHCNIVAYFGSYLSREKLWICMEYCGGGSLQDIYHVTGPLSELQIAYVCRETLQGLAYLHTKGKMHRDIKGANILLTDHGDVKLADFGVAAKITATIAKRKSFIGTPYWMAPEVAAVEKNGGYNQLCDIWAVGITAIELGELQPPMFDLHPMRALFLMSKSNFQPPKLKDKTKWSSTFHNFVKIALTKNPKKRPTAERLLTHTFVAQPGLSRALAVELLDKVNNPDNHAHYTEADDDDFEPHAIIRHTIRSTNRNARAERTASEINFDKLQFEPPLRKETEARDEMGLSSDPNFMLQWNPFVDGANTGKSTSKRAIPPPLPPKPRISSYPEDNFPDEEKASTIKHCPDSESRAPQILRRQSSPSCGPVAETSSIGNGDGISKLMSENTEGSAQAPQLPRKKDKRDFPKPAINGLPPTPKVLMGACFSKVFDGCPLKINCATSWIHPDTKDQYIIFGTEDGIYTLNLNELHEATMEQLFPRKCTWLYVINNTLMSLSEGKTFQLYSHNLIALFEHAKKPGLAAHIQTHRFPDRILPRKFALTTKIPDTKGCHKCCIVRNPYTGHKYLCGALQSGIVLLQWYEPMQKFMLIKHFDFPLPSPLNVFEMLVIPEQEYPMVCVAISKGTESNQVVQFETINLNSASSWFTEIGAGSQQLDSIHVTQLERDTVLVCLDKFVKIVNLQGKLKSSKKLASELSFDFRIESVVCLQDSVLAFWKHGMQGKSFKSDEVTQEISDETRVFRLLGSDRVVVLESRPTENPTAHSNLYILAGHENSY
Chain of Chromodomain-helicase-DNA-binding protein 4 (Q14839 whole entry): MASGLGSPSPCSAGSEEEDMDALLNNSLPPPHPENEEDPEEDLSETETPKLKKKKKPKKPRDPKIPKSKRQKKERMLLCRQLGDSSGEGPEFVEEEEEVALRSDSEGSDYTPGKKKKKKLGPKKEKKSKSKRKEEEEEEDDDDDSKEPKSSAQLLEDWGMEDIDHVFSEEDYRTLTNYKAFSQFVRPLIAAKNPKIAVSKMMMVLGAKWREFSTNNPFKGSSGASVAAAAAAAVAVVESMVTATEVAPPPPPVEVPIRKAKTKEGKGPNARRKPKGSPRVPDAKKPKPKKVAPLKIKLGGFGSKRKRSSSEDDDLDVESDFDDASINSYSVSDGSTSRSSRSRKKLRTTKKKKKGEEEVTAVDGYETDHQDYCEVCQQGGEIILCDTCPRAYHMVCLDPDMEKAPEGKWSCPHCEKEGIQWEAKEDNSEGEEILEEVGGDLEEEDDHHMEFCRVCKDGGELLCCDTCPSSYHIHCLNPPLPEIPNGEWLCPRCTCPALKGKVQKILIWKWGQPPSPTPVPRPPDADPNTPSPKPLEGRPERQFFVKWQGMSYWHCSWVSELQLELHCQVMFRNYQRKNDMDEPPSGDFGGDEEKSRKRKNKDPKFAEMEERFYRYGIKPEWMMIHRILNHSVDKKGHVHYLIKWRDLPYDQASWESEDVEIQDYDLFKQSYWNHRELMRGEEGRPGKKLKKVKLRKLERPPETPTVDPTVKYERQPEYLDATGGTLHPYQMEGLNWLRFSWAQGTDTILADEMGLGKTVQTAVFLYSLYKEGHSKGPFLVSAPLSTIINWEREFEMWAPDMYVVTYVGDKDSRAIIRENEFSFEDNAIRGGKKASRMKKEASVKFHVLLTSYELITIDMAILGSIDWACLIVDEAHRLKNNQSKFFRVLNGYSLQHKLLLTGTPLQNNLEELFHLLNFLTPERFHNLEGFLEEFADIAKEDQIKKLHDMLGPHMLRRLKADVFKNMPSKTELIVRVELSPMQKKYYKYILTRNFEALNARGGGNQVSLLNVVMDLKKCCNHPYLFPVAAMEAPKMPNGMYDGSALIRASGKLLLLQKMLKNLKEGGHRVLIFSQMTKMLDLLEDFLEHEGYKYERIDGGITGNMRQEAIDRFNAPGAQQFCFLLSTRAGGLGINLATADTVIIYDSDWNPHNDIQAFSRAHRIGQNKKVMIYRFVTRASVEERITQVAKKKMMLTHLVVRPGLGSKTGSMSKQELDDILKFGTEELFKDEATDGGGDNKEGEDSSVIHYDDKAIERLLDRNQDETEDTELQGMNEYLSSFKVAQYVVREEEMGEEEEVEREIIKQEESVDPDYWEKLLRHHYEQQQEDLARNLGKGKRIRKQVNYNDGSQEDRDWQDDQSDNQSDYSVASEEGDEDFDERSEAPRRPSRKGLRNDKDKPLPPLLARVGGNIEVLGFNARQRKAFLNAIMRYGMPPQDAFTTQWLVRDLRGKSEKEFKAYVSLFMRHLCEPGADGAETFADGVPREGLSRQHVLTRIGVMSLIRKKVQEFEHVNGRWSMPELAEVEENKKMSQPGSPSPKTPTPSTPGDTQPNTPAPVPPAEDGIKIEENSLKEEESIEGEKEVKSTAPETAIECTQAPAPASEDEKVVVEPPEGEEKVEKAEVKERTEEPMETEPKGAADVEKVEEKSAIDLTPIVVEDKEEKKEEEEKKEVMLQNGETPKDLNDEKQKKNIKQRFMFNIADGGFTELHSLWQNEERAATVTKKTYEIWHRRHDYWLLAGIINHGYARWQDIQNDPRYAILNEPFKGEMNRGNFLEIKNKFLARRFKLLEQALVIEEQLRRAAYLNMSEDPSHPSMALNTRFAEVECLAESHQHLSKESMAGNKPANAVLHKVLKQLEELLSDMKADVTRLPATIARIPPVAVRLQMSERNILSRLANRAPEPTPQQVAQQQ
Chain of Citron Rho-interacting kinase (O14578 whole entry): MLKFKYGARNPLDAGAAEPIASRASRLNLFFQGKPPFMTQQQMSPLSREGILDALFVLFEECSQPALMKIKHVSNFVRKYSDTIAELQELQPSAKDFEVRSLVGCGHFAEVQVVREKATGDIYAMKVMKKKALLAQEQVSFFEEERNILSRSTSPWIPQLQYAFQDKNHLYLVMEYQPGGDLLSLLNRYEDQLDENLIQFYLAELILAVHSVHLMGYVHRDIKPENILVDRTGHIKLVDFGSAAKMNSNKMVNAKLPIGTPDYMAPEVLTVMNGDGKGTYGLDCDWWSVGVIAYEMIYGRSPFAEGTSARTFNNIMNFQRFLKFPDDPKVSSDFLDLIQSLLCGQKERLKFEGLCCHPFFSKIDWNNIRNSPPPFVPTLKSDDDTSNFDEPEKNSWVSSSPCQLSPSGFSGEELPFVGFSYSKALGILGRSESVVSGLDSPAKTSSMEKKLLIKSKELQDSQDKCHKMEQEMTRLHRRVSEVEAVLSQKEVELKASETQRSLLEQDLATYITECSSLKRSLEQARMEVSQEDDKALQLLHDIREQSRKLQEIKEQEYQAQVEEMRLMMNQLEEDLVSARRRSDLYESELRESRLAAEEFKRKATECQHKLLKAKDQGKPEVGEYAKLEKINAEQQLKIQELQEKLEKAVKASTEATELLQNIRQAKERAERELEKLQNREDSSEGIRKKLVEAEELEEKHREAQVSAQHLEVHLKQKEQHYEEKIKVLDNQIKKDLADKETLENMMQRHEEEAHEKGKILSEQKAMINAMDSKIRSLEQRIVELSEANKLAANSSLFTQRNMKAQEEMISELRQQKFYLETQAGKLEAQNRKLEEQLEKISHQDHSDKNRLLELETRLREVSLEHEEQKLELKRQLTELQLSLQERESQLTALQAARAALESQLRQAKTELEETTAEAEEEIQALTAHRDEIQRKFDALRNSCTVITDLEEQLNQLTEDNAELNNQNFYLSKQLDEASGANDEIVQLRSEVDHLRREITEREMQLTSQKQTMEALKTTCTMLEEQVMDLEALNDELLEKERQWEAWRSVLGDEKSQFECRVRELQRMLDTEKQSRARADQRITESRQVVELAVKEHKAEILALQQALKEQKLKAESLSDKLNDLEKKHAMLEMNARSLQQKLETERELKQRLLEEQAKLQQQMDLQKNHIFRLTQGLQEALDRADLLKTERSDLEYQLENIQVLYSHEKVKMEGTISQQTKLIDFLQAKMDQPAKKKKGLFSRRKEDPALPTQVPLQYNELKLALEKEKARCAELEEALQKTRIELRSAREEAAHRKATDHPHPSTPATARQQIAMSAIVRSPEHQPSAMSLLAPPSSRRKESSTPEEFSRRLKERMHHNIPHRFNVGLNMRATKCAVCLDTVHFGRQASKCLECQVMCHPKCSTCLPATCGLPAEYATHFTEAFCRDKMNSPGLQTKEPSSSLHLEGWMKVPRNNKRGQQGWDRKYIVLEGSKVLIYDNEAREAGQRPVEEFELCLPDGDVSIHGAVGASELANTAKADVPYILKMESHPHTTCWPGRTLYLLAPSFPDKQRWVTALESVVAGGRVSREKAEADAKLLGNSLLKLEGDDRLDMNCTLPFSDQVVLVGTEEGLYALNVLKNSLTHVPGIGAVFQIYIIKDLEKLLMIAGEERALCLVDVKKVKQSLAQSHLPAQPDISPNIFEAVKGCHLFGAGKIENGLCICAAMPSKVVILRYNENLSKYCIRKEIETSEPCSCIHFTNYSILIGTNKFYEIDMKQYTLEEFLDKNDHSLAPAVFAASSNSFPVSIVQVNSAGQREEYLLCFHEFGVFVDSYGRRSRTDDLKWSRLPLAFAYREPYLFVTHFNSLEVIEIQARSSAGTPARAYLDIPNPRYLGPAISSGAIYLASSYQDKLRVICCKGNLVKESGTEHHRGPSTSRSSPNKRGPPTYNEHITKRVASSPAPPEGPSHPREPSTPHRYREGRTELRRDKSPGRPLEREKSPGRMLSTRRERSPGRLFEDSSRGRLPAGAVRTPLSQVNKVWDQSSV

For `Cn1cc(-c2[nH]c3cc(NC(=O)[C@H](N)C4CCCCC4)cc4c3c2C=NNC4=O)cn1`, the Kd [1] was > 30 µM (inactive), the Kd [2] was 0.725 µM (active) and the Kd [3] was > 30 µM (inactive). For the same molecule, the Kd [4] was 2.64 µM (active), the Kd [5] was > 30 µM (inactive) and the Kd [6] was > 30 µM (inactive).

For `CCN1CCN(Cc2ccc(Nc3ncc(F)c(-c4cc(F)c5nc(C)n(C(C)C)c5c4)n3)nc2)CC1` [ABEMACICLIB], the Kd [2] was 0.798 µM (active), the Kd [7] was > 30 µM (inactive) and the Kd [3] was > 30 µM (inactive). The Kd [4] was > 30 µM (inactive), the Kd [5] was > 30 µM (inactive) and the Kd [6] was > 30 µM (inactive).

In the case of `C=CCn1c(=O)c2cnc(Nc3ccc(N4CCN(C)CC4)cc3)nc2n1-c1cccc(C(C)(C)O)n1` [ADAVOSERTIB], the Kd [2] is reported as > 30 µM (inactive), the Kd [7] is reported as > 30 µM (inactive) and the Kd [5] is reported as > 30 µM (inactive). For the same molecule, the Kd [6] was > 30 µM (inactive).

`CN(C)C/C=C/C(=O)Nc1cc2c(Nc3ccc(F)c(Cl)c3)ncnc2cc1O[C@H]1CCOC1` [AFATINIB] was tested, and the Kd [5] was > 30 µM (inactive).

For `COc1ccc2c(OCc3nnc4ccc(-c5ccccc5)nn34)ccnc2c1` [AMG-208], the Kd [1] was > 30 µM (inactive), the Kd [2] was > 30 µM (inactive) and the Kd [7] was > 30 µM (inactive). The Kd [3] was > 30 µM (inactive), the Kd [4] was > 30 µM (inactive) and the Kd [5] was > 30 µM (inactive).

With `CCN(CCCOc1ccc2c(Nc3cc(CC(=O)Nc4cccc(F)c4)n[nH]3)ncnc2c1)CCOP(=O)(O)O` [BARASERTIB] the Kd [2] was > 30 µM (inactive), the Kd [7] was > 30 µM (inactive) and the Kd [4] was 2.24 µM (active). The Kd [5] was > 30 µM (inactive) and the Kd [6] was > 30 µM (inactive).

`COc1cccc(Nc2ncnn3ccc(CN4CC[C@@H](N)[C@H](O)C4)c23)c1` [BMS-690514] was tested, and the Kd [1] was > 30 µM (inactive), the Kd [7] was > 30 µM (inactive) and the Kd [3] was > 30 µM (inactive). For the same molecule, the Kd [5] was > 30 µM (inactive) and the Kd [6] was > 30 µM (inactive).

`C[C@@]1(C(=O)Nc2ccc(F)nc2)CCCN1c1nc(Nc2cc(C3CC3)n[nH]2)c2cccn2n1` [BMS-754807] was tested, and the Kd [5] was > 30 µM (inactive).

`COc1cc2c(Oc3ccc4[nH]c(C)cc4c3F)ncnc2cc1OCCCN1CCCC1` [CEDIRANIB] was tested, and the Kd [5] was > 30 µM (inactive).

For `CC1(COc2ccc3c(c2)ncn3-c2ccc3cccc(N4CCC(N)CC4)c3n2)COC1` [CRENOLANIB], the Kd [1] was 1.24 µM, the Kd [2] was > 30 µM (inactive) and the Kd [7] was > 30 µM (inactive). The Kd [3] was > 30 µM (inactive), the Kd [4] was 0.455 µM (active) and the Kd [6] was > 30 µM (inactive).

In the case of `Cn1c(=O)n(-c2ccc(C(C)(C)C#N)cc2)c2c3cc(-c4cnc5ccccc5c4)ccc3ncc21` [DACTOLISIB], the Kd [2] is reported as > 30 µM (inactive), the Kd [7] is reported as > 30 µM (inactive) and the Kd [5] is reported as > 30 µM (inactive). The Kd [6] was > 30 µM (inactive).

`CC[C@@](C)(Nc1ccnc(-c2c[nH]c3ncccc23)n1)C(=O)NCC(F)(F)F` [DECERNOTINIB] was tested, and the Kd [1] was 3.41 µM (active), the Kd [2] was > 30 µM (inactive) and the Kd [3] was > 30 µM (inactive). The Kd [4] was > 30 µM (inactive), the Kd [5] was > 30 µM (inactive) and the Kd [6] was > 30 µM (inactive).

`O=S(=O)(c1cccc2cnccc12)N1CCCNCC1` [FASUDIL] was tested, and the Kd [2] was 48.9 µM (active), the Kd [5] was > 30 µM (inactive) and the Kd [6] was > 30 µM (inactive).

In the case of `C[C@]1(O)C[C@@H](c2nc(-c3ccc4ccc(-c5ccccc5)nc4c3)c3c(N)nccn32)C1` [LINSITINIB], the Kd [2] is reported as > 30 µM (inactive), the Kd [3] is reported as 1.14 µM (active) and the Kd [4] is reported as 0.614 µM (active). For the same molecule, the Kd [5] was > 30 µM (inactive) and the Kd [6] was > 30 µM (inactive).

In the case of `O=C(NOC[C@H](O)CO)c1ccc(F)c(F)c1Nc1ccc(I)cc1F` [MIRDAMETINIB], the Kd [1] is reported as > 30 µM (inactive), the Kd [2] is reported as > 30 µM (inactive) and the Kd [7] is reported as > 30 µM (inactive). For the same molecule, the Kd [4] was > 30 µM (inactive), the Kd [5] was > 30 µM (inactive) and the Kd [6] was > 30 µM (inactive).

In the case of `N#CCNC(=O)c1ccc(-c2ccnc(Nc3ccc(N4CCOCC4)cc3)n2)cc1` [MOMELOTINIB], the Kd [1] is reported as > 30 µM (inactive), the Kd [2] is reported as 0.313 µM (active) and the Kd [6] is reported as > 30 µM (inactive).

With `CC1(C)CNc2cc(NC(=O)c3cccnc3NCc3ccncc3)ccc21` [MOTESANIB] the Kd [5] was > 30 µM (inactive).

With `CN(c1ncccc1CNc1nc(Nc2ccc3c(c2)CC(=O)N3)ncc1C(F)(F)F)S(C)(=O)=O` [PF-00562271] the Kd [2] was > 30 µM (inactive), the Kd [5] was > 30 µM (inactive) and the Kd [6] was > 30 µM (inactive).

`O=C(NC[C@H](O)CO)c1ccncc1Nc1ccc(I)cc1F` [PIMASERTIB] was tested, and the Kd [1] was > 30 µM (inactive), the Kd [2] was > 30 µM (inactive) and the Kd [7] was > 30 µM (inactive). The Kd [3] was 0.038 µM (active), the Kd [4] was > 30 µM (inactive) and the Kd [5] was > 30 µM (inactive).

`COc1cc(F)c(F)c(Nc2ccc(I)cc2F)c1NS(=O)(=O)C1(C[C@H](O)CO)CC1` [REFAMETINIB] was tested, and the Kd [1] was > 30 µM (inactive), the Kd [2] was > 30 µM (inactive) and the Kd [7] was > 30 µM (inactive). For the same molecule, the Kd [3] was 0.176 µM (active), the Kd [4] was > 30 µM (inactive) and the Kd [6] was > 30 µM (inactive).

In the case of `Cn1cnc2c(F)c(Nc3ccc(Br)cc3Cl)c(C(=O)NOCCO)cc21` [SELUMETINIB], the Kd [5] is reported as > 30 µM (inactive).

For `CN1CCN(c2nc(C3=C(c4c[nH]c5ccccc45)C(=O)NC3=O)c3ccccc3n2)CC1` [SOTRASTAURIN], the Kd [2] was > 30 µM (inactive), the Kd [7] was > 30 µM (inactive) and the Kd [3] was > 30 µM (inactive). For the same molecule, the Kd [5] was > 30 µM (inactive) and the Kd [6] was > 30 µM (inactive).

`CC(C)(O)CC(=O)NCCn1ccc2ncnc(Nc3ccc(Oc4cccc(C(F)(F)F)c4)c(Cl)c3)c21` [TAK-285] was tested, and the Kd [1] was > 30 µM (inactive), the Kd [2] was > 30 µM (inactive) and the Kd [7] was > 30 µM (inactive). For the same molecule, the Kd [4] was > 30 µM (inactive), the Kd [5] was > 30 µM (inactive) and the Kd [6] was > 30 µM (inactive).

For `COc1cc2c(N3CCN(C(=O)Nc4ccc(OC(C)C)cc4)CC3)ncnc2cc1OCCCN1CCCCC1` [TANDUTINIB], the Kd [5] was > 30 µM (inactive).

`Cc1cc(-c2cc(OC(=O)c3ccccc3)ccc2Cl)cc2nnc(Nc3ccc(OCCN4CCCC4)cc3)nc12` [TG100-801] was tested, and the Kd [1] was > 30 µM (inactive), the Kd [2] was > 30 µM (inactive) and the Kd [7] was > 30 µM (inactive). For the same molecule, the Kd [3] was > 30 µM (inactive) and the Kd [4] was > 30 µM (inactive).
